From patent US10268799B2, “Screening methods for thyroid hormone disruptors based on co-regulator involved simulations” (Nanjing University, priority 2016, dated 2019)
“Also recorded” adds a separate entry of the source.

Assays:
GH3 cells = assay: GH3 cell proliferation assay (anti-TH potency); assay type: cell-based, rat; conditions: for −log RIC20 (relative anti-TH potency): RIC20 (mol/L) is 20% inhibition of proliferation of GH3 cells induced by 0.5 nM T3; for TH disrupting effect determined in GH3 proliferation assay: result in words
Procedure: The rat pituitary tumor cell line GH3 was cultured for determination of the relative TH disrupting potencies. […] Due to cytotoxicity, the other 3 HO-PBDEs were not tested for anti-TH potencies.

human TRα-LBD = target: T1, human TRα-LBD (Homo sapiens, UniProt P10827); assay: Competitive binding assay with Fluorescein-labeled T3 probe, human TRα; conditions: result in words (FIG. 2A)
T1 sequence (P10827 163-410 isoform P10827-2): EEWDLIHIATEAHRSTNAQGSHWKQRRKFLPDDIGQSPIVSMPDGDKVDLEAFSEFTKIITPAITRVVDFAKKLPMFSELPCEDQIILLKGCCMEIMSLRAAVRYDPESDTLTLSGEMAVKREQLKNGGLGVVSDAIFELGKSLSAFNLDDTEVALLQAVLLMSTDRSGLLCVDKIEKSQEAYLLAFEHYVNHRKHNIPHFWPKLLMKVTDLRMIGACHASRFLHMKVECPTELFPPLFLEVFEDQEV

SMILES	−log RIC20 (relative anti-TH potency) (GH3 cells)	TH disrupting effect determined in GH3 proliferation assay (GH3 cells)	binding affinity with TRα (human TRα-LBD)
Oc1c(Oc2ccc(Br)cc2Br)cc(Br)c(Br)c1Br [2-HO-BDE-123]	7.44	antagonists of the TR	greater affinities
Oc1c(Oc2ccc(Br)cc2Br)ccc(Br)c1Br [2′-OH-BDE-66]	7.09		
Oc1c(Br)cc(Br)cc1Oc1ccc(Br)cc1Br [2′-OH-BDE-68]	7.15		
Oc1c(Br)cc(Br)c(Oc2ccc(Br)cc2Br)c1Br [3-HO-BDE-100]	7.83		greater affinities; also recorded: one of the strongest binding ligands
Oc1c(Br)cc(Oc2ccc(Br)cc2Br)c(Br)c1Br [4-HO-BDE-90]	7.59	antagonists of the TR	
Oc1c(Br)c(Br)c(Oc2c(Br)cc(Br)cc2Br)c(Br)c1Br [4-HO-BDE-188]	8.42		
Oc1cc(Br)c(Oc2ccc(Br)cc2Br)cc1Br [4′-HO-BDE-49]	7.30		too weak to detect
Oc1cc(Br)c(Oc2cc(Br)c(Br)cc2Br)cc1Br [4′-HO-BDE-101]	8.11		
Oc1ccc(Oc2ccc(Br)cc2Br)c(Br)c1 [4′-OH-BDE-17]	6.51		
Oc1c(Br)cc(Br)c(Br)c1Oc1ccc(Br)cc1Br [6-HO-BDE-90]	7.76		
Oc1c(Br)c(Br)c(Br)c(Br)c1Oc1ccc(Br)cc1Br [6-HO-BDE-137]	8.03	antagonists of the TR	greater affinities
Oc1cc(Br)c(Br)c(Br)c1Oc1cc(Br)c(Br)c(Br)c1 [6-HO-BDE-157]	8.14		
Oc1cccc(Br)c1Oc1ccc(Br)cc1Br [6′-HO-BDE-17]	6.78		
